pIC50: −log10 of the molar value.
target: T1, CCR1 (Homo sapiens, UniProt P32246); experiment: Method B: calcium flux in CCR1 transfected cells (Calcium 4 dye, […] FDSS6000), block of the CCR1/MIP-1α interaction; format: cell-based; details: Method B: Calcium 4 dye, MIP-1alpha at EC80
T1 sequence (P32246 1-355): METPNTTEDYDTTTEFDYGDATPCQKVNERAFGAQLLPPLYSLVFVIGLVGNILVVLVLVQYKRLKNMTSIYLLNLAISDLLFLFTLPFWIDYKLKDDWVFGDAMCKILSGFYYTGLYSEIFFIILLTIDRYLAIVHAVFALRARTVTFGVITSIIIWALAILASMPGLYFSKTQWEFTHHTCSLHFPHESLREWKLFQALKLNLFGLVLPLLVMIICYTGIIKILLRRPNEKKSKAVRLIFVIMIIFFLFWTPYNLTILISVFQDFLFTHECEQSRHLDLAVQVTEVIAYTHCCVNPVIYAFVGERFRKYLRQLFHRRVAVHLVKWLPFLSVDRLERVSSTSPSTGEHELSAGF
Procedure: Compounds are assessed for the ability to block the interaction of CCR1 and MIP-1α in a functional cellular assay measuring calcium flux in CCR1 transfected cells.
Method B: Non-adherent cells purchased from Chemicon Corporation (HTS005C), stably expressing recombinant CCR1 and G-alpha-16 are grown in RPMI 1640 medium (Mediatech 10-080-CM) supplemented with 10% FBS, 0.4 mg/mL Geneticin and penicillin/streptomycin. On the day of the assay, the cells are loaded with Calcium 4 dye (Molecular Devices R7448) with Probenecid (Invitrogen P346400) at 8E5 cells/mL for 1 hour at room temperature. After 1 hour, they are seeded in a 384-well tissue culture-treated plate at a density of 20,000 cells/well. Appropriately diluted test compound is added to the well to achieve a top concentration of 3,000 nM (diluted 4-fold with 10 doses total). The final concentration of DMSO is 1%. The buffer is HBSS (Invitrogen 14025) with 20 mM HEPES at pH 7.4. The cells incubate 30 minutes at 37 C and then 30 minutes at room temperature. The plates are transferred to the […] FDSS6000 where MIP-1alpha in 1% BSA is added at the EC80 final concentration. All plates must be read within 4 hours of the start of dye-loading. Wells+/−MIP-1alpha containing diluted DMSO instead of compound serve as the controls. Data are analyzed using Activity Base software.

Row | Compound | pIC50
1 | COC(=O)CCS(=O)(=O)c1cccc([C@H](C)NC(=O)c2cncc3c2cnn3-c2ccc(F)cc2)n1 [3-[6-((S)-1-{[1-(4-Fluorophenyl)-1H-pyrazolo[3,4-c]pyridine-4-carbonyl]-amino}-ethyl)-pyridine-2-sulfonyl]-propionic acid methyl ester] | 7.46
2 | CC[C@H](NC(=O)c1cncc2c1cnn2-c1ccc(F)cc1)c1cc(NCC(N)=O)nc(S(C)(=O)=O)c1 [1-(4-Fluorophenyl)-1H-pyrazolo[3,4-c]pyridine-4-carboxylic acid {(S)-1-[2-(carbamoylmethyl-amino)-6-methanesulfonyl-pyridin-4-yl]-propyl}-amide] | 9.40
3 | CC[C@H](NC(=O)c1cncc2c1cnn2-c1ccc(F)cc1)c1ccc(OC)c(Br)c1 [1-(4-Fluorophenyl)-1H-pyrazolo[3,4-c]pyridine-4-carboxylic acid [(S)-1-(3-bromo-4-methoxy-phenyl)-propyl]-amide] | 8.15
4 | CC[C@H](NC(=O)c1cncc2c1cnn2-c1ccc(F)cc1)c1cccc(Br)n1 [1-(4-Fluorophenyl)-1H-pyrazolo[3,4-c]pyridine-4-carboxylic acid [(S)-1-(6-bromopyridin-2-yl)-propyl]-amide] | 9.70
5 | CC[C@H](NC(=O)c1cncc2c1cnn2-c1ccc(F)cc1)c1csc(S(C)(=O)=O)n1 [1-(4-Fluorophenyl)-1H-pyrazolo[3,4-c]pyridine-4-carboxylic acid [(S)-1-(2-methanesulfonyl-thiazol-4-yl)-propyl]-amide] | 9.40
6 | CCC(NC(=O)c1cncc2c1cnn2-c1ccc(F)cc1)c1nc(C(=O)NCC#N)c(C)o1 (centres unmarked) [1-(4-Fluorophenyl)-1H-pyrazolo[3,4-c]pyridine-4-carboxylic acid {1-[4-(cyanomethyl-carbamoyl)-5-methyl-oxazol-2-yl]-propyl}-amide] | 7.74
7 | CC[C@H](NC(=O)c1cncc2c1cnn2-c1ccc(F)cc1)c1ccc(S(C)(=O)=O)nc1 [1-(4-Fluorophenyl)-1H-pyrazolo[3,4-c]pyridine-4-carboxylic acid [(S)-1-(6-methanesulfonyl-pyridin-3-yl)-propyl]-amide] | 9.00
8 | CC[C@H](NC(=O)c1cncc2c1cnn2-c1ccc(F)cc1)c1ccnc(N(C)C2CCNCC2)c1 [1-(4-Fluorophenyl)-1H-pyrazolo[3,4-c]pyridine-4-carboxylic acid {(S)-1-[2-(methyl-piperidin-4-yl-amino)-pyridin-4-yl]-propyl}-amide] | 7.96
9 | CNc1cc([C@H](C)NC(=O)c2cncc3c2cnn3-c2ccc(F)cc2)cc(S(C)(=O)=O)n1 [1-(4-Fluorophenyl)-1H-pyrazolo[3,4-c]pyridine-4-carboxylic acid [(S)-1-(2-methanesulfonyl-6-methylamino-pyridin-4-yl)-ethyl]-amide] | 9.40
10 | CC[C@H](NC(=O)c1cncc2c1cnn2-c1ccc(F)cc1)c1ccc(S(=O)(=O)NC2CC2)nc1 [1-(4-Fluorophenyl)-1H-pyrazolo[3,4-c]pyridine-4-carboxylic acid [(S)-1-(6-cyclopropylsulfamoyl-pyridin-3-yl)-propyl]-amide] | 9.70
11 | CCC(NC(=O)c1cncc2c1cnn2-c1ccc(F)cc1)C1CCN(S(C)(=O)=O)CC1 (centres unmarked) [1-(4-Fluorophenyl)-1H-pyrazolo[3,4-c]pyridine-4-carboxylic acid [1-(1-methanesulfonyl-piperidin-4-yl)-propyl]-amide] | 8.70
12 | CCC(C)(NC(=O)c1cncc2c1cnn2-c1ccc(F)cc1)c1ccnc(S(C)(=O)=O)c1 (centres unmarked) [1-(4-Fluorophenyl)-1H-pyrazolo[3,4-c]pyridine-4-carboxylic acid [1-(2-methanesulfonyl-pyridin-4-yl)-1-methyl-propyl]-amide] | 8.22
13 | C[C@H](NC(=O)c1cncc2c1cnn2-c1ccc(F)cc1)c1cc(NCC(N)=O)nc(S(C)(=O)=O)c1 [1-(4-Fluorophenyl)-1H-pyrazolo[3,4-c]pyridine-4-carboxylic acid {(S)-1-[2-(carbamoylmethyl-amino)-6-methanesulfonyl-pyridin-4-yl]-ethyl}-amide] | 9.22
14 | CC[C@H](NC(=O)c1cncc2c1cnn2-c1ccc(F)cc1)c1ccc(Br)s1 [1-(4-Fluorophenyl)-1H-pyrazolo[3,4-c]pyridine-4-carboxylic acid [(S)-1-(5-bromo-thiophen-2-yl)-propyl]-amide] | 9.22
15 | COC(=O)CCS(=O)(=O)c1cc([C@H](C)NC(=O)c2cncc3c2cnn3-c2ccc(F)cc2)ccn1 [3-[4-((S)-1-{[1-(4-Fluorophenyl)-1H-pyrazolo[3,4-c]pyridine-4-carbonyl]-amino}-ethyl)-pyridine-2-sulfonyl]-propionic acid methyl ester] | 7.43
16 | CC[C@H](NC(=O)c1cncc2c1cnn2-c1ccc(F)cc1)c1ccnc(N2CCN(C)CC2)c1 [1-(4-Fluorophenyl)-1H-pyrazolo[3,4-c]pyridine-4-carboxylic acid {(S)-1-[2-(4-methyl-piperazin-1-yl)-pyridin-4-yl]-propyl}-amide] | 8.10
17 | CCC(NC(=O)c1cncc2c1cnn2-c1ccc(F)cc1)c1nc(C(=O)NCC#N)co1 (centres unmarked) [1-(4-Fluorophenyl)-1H-pyrazolo[3,4-c]pyridine-4-carboxylic acid {1-[4-(cyanomethyl-carbamoyl)-oxazol-2-yl]-propyl}-amide] | 7.60
18 | CC[C@H](NC(=O)c1cncc2c1cnn2-c1ccc(F)cc1)c1cc(S(C)(=O)=O)c[nH]1 [1-(4-Fluorophenyl)-1H-pyrazolo[3,4-c]pyridine-4-carboxylic acid [(S)-1-(4-methanesulfonyl-1H-pyrrol-2-yl)-propyl]-amide] | 9.00
19 | CC[C@H](NC(=O)c1cncc2c1cnn2-c1ccc(F)cc1)c1ccc(S(C)(=O)=O)c(O)c1 [1-(4-Fluorophenyl)-1H-pyrazolo[3,4-c]pyridine-4-carboxylic acid [(S)-1-(3-hydroxy-4-methanesulfonyl-phenyl)-propyl]-amide] | 9.22
20 | CC[C@H](NC(=O)c1cncc2c1cnn2-c1ccc(F)cc1)c1cccc(S(=O)(=O)CC)n1 [1-(4-Fluorophenyl)-1H-pyrazolo[3,4-c]pyridine-4-carboxylic acid [(S)-1-(6-ethanesulfonyl-pyridin-2-yl)-propyl]-amide] | 9.30
21 | CC[C@H](NC(=O)c1cncc2c1cnn2-c1ccc(F)cc1)c1cnc(S(C)(=O)=O)o1 [1-(4-Fluorophenyl)-1H-pyrazolo[3,4-c]pyridine-4-carboxylic acid [(S)-1-(2-methanesulfonyl-oxazol-5-yl)-propyl]-amide] | 8.52
22 | CC[C@H](NC(=O)c1cncc2c1cnn2-c1ccc(F)cc1)c1ccnc(-c2nnn[nH]2)c1 [1-(4-Fluorophenyl)-1H-pyrazolo[3,4-c]pyridine-4-carboxylic acid {(S)-1-[2-(1H-tetrazol-5-yl)-pyridin-4-yl]-propyl}-amide] | 8.52
23 | O=C(NCc1cnc(Br)s1)c1cncc2c1cnn2-c1ccc(F)cc1 [1-(4-Fluorophenyl)-1H-pyrazolo[3,4-c]pyridine-4-carboxylic acid (2-bromo-thiazol-5-ylmethyl)-amide] | 7.60
24 | CC[C@H](NC(=O)c1cncc2c1cnn2-c1ccc(F)cc1)c1ccc(O)c(S(C)(=O)=O)c1 [1-(4-Fluorophenyl)-1H-pyrazolo[3,4-c]pyridine-4-carboxylic acid [(S)-1-(4-hydroxy-3-methanesulfonyl-phenyl)-propyl]-amide] | 9.70
25 | C[C@H](NC(=O)c1cncc2c1cnn2-c1ccc(F)cc1)c1cc(N(C)C)nc(S(C)(=O)=O)c1 [1-(4-Fluorophenyl)-1H-pyrazolo[3,4-c]pyridine-4-carboxylic acid [(S)-1-(2-dimethylamino-6-methanesulfonyl-pyridin-4-yl)-ethyl]-amide] | 9.70
26 | COC[C@H](NC(=O)c1cncc2c1cnn2-c1ccc(F)cc1)c1ccnc(Br)c1 [1-(4-Fluorophenyl)-1H-pyrazolo[3,4-c]pyridine-4-carboxylic acid [(R)-1-(2-bromopyridin-4-yl)-2-methoxy-ethyl]-amide] | 9.30
27 | CC[C@H](NC(=O)c1cncc2c1cnn2-c1ccc(F)cc1)c1cc(NC)nc(S(C)(=O)=O)c1 [1-(4-Fluorophenyl)-1H-pyrazolo[3,4-c]pyridine-4-carboxylic acid [(S)-1-(2-methanesulfonyl-6-methylamino-pyridin-4-yl)-propyl]-amide] | 9.52
28 | CC[C@H](NC(=O)c1cncc2c1cnn2-c1ccc(F)cc1)c1cccc(S(C)(=O)=O)n1 [1-(4-Fluorophenyl)-1H-pyrazolo[3,4-c]pyridine-4-carboxylic acid [(S)-1-(6-methanesulfonyl-pyridin-2-yl)-propyl]-amide] | 9.70
29 | CC[C@H](NC(=O)c1cncc2c1cnn2-c1ccc(F)cc1)c1ccc(Br)c(OC)c1 [1-(4-Fluorophenyl)-1H-pyrazolo[3,4-c]pyridine-4-carboxylic acid [(S)-1-(4-bromo-3-methoxy-phenyl)-propyl]-amide] | 9.30
